From the supplement of paper PMC10883282

Columns and labels:
Assay in all cases: relative viability vs DMSO control (72 h) (fraction); higher = more viable cells
[1] = system: HS729
In short: (§1)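 Plates held 72 h at 37 °C and 5% CO2 contained sarcoma cell lines seeded in 384-well format to reach 80–90% confluence, plus 2.5 µl of serially diluted compound added after 24 h. Source plate concentrations ran from 10 mM to 0.0002 mM, with 0.1% DMSO as vehicle and a 5 µM positive control. Percent growth from ATPLite readings, averaged over up to triplicate wells, gave relative viability. Values were rescaled with 1 as full and 0 as none.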

[2] = system: HT1080
In short: as §1

[3] = system: SW684
In short: as §1

[4] = system: KHOS-NP
In short: as §1

[5] = system: A204
In short: as §1

[6] = system: VA-ES-BJ
In short: as §1

[7] = system: SW982
In short: as §1

[8] = system: SK-ES-1
In short: as §1

[9] = system: SK-LMS-1
In short: as §1

[10] = system: SW872
In short: as §1

[11] = system: RD-ES
In short: as §1

[12] = system: G401
In short: as §1

CO[C@H]1C[C@@H]2CC[C@@H](C)[C@@](O)(O2)C(=O)C(=O)N2CCCC[C@H]2C(=O)O[C@H]([C@H](C)C[C@@H]2CC[C@@H](O)[C@H](OC)C2)CC(=O)[C@H](C)/C=C(\C)[C@@H](O)[C@@H](OC)C(=O)[C@H](C)C[C@H](C)/C=C/C=C/C=C/1C [Rapamycin]
Details	relative viability
[1], 0.00017 µM	0.98
[1], 0.00051 µM	0.999
[1], 0.00152 µM	1.01
[1], 0.00457 µM	0.972
[1], 0.01372 µM	0.97
[1], 0.04115 µM	0.926
[1], 0.1235 µM	0.962
[1], 0.3704 µM	0.877
[1], 1.111 µM	0.918
[1], 3.333 µM	0.891
[1], 10 µM	0.92
[2], 0.00017 µM	1.04
[2], 0.00051 µM	1.03
[2], 0.00152 µM	1.02
[2], 0.00457 µM	0.97
[2], 0.01372 µM	0.966
[2], 0.04115 µM	0.972
[2], 0.1235 µM	0.932
[2], 0.3704 µM	0.917
[2], 1.111 µM	0.905
[2], 3.333 µM	0.869
[2], 10 µM	0.851
[3], 0.00017 µM	0.9947
[3], 0.00051 µM	0.936
[3], 0.00152 µM	0.812
[3], 0.00457 µM	0.743
[3], 0.01372 µM	0.678
[3], 0.04115 µM	0.681
[3], 0.1235 µM	0.718
[3], 0.3704 µM	0.718
[3], 1.111 µM	0.75
[3], 3.333 µM	0.752
[3], 10 µM	0.682
[4], 0.00017 µM	1.04
[4], 0.00051 µM	1.05
[4], 0.00152 µM	1.07
[4], 0.00457 µM	1.07
[4], 0.01372 µM	1.06
[4], 0.04115 µM	1.06
[4], 0.1235 µM	1.03
[4], 0.3704 µM	1.04
[4], 1.111 µM	1.05
[4], 3.333 µM	1.02
[4], 10 µM	0.882
[5], 0.00017 µM	0.894
[5], 0.00051 µM	0.707
[5], 0.00152 µM	0.614
[5], 0.00457 µM	0.542
[5], 0.01372 µM	0.513
[5], 0.04115 µM	0.499
[5], 0.1235 µM	0.489
[5], 0.3704 µM	0.464
[5], 1.111 µM	0.453
[5], 3.333 µM	0.425
[5], 10 µM	0.408
[6], 0.00017 µM	0.942
[6], 0.00051 µM	0.814
[6], 0.00152 µM	0.723
[6], 0.00457 µM	0.584
[6], 0.01372 µM	0.476
[6], 0.04115 µM	0.451
[6], 0.1235 µM	0.435
[6], 0.3704 µM	0.427
[6], 1.111 µM	0.444
[6], 3.333 µM	0.446
[6], 10 µM	0.43
[7], 0.00017 µM	0.919
[7], 0.00051 µM	0.86
[7], 0.00152 µM	0.763
[7], 0.00457 µM	0.695
[7], 0.01372 µM	0.634
[7], 0.04115 µM	0.597
[7], 0.1235 µM	0.567
[7], 0.3704 µM	0.603
[7], 1.111 µM	0.586
[7], 3.333 µM	0.597
[7], 10 µM	0.591
[8], 0.00017 µM	0.953
[8], 0.00051 µM	0.866
[8], 0.00152 µM	0.737
[8], 0.00457 µM	0.63
[8], 0.01372 µM	0.564
[8], 0.04115 µM	0.554
[8], 0.1235 µM	0.51
[8], 0.3704 µM	0.512
[8], 1.111 µM	0.5
[8], 3.333 µM	0.482
[8], 10 µM	0.457
[9], 0.00017 µM	0.924
[9], 0.00051 µM	0.758
[9], 0.00152 µM	0.697
[9], 0.00457 µM	0.621
[9], 0.01372 µM	0.58
[9], 0.04115 µM	0.567
[9], 0.1235 µM	0.551
[9], 0.3704 µM	0.526
[9], 1.111 µM	0.554
[9], 3.333 µM	0.522
[9], 10 µM	0.5
[10], 0.00017 µM	0.867
[10], 0.00051 µM	0.787
[10], 0.00152 µM	0.729
[10], 0.00457 µM	0.659
[10], 0.01372 µM	0.602
[10], 0.04115 µM	0.565
[10], 0.1235 µM	0.543
[10], 0.3704 µM	0.548
[10], 1.111 µM	0.561
[10], 3.333 µM	0.567
[10], 10 µM	0.553
[11], 0.00017 µM	0.966
[11], 0.00051 µM	0.962
[11], 0.00152 µM	0.868
[11], 0.00457 µM	0.833
[11], 0.01372 µM	0.77
[11], 0.04115 µM	0.712
[11], 0.1235 µM	0.665
[11], 0.3704 µM	0.677
[11], 1.111 µM	0.687
[11], 3.333 µM	0.647
[11], 10 µM	0.611
[12], 0.00017 µM	0.901
[12], 0.00051 µM	0.856
[12], 0.00152 µM	0.815
[12], 0.00457 µM	0.784
[12], 0.01372 µM	0.759
[12], 0.04115 µM	0.717
[12], 0.1235 µM	0.687
[12], 0.3704 µM	0.676
[12], 1.111 µM	0.634
[12], 3.333 µM	0.613
[12], 10 µM	0.589

CO[C@@H]1[C@H](N(C)C(=O)c2ccccc2)C[C@H]2O[C@]1(C)n1c3ccccc3c3c4c(c5c6ccccc6n2c5c31)C(=O)NC4 [Midostaurin]
Details	relative viability
[1], 0.00017 µM	0.927
[1], 0.00051 µM	0.913
[1], 0.00152 µM	0.914
[1], 0.00457 µM	0.921
[1], 0.01372 µM	0.874
[1], 0.04115 µM	0.828
[1], 0.1235 µM	0.791
[1], 0.3704 µM	0.684
[1], 1.111 µM	0.368
[1], 3.333 µM	0.269
[1], 10 µM	0.273
[2], 0.00017 µM	1.01
[2], 0.00051 µM	0.999
[2], 0.00152 µM	1.007
[2], 0.00457 µM	0.986
[2], 0.01372 µM	1.04
[2], 0.04115 µM	0.987
[2], 0.1235 µM	0.9478
[2], 0.3704 µM	0.716
[2], 1.111 µM	0.406
[2], 3.333 µM	0.31
[2], 10 µM	0.288
[3], 0.00017 µM	1.08
[3], 0.00051 µM	1.05
[3], 0.00152 µM	1.05
[3], 0.00457 µM	1.02
[3], 0.01372 µM	1.04
[3], 0.04115 µM	1.05
[3], 0.1235 µM	1.08
[3], 0.3704 µM	0.863
[3], 1.111 µM	0.524
[3], 3.333 µM	0.406
[3], 10 µM	0.363
[4], 0.00017 µM	1.04
[4], 0.00051 µM	1.04
[4], 0.00152 µM	1.04
[4], 0.00457 µM	1.038
[4], 0.01372 µM	1.02
[4], 0.04115 µM	1.02
[4], 0.1235 µM	0.987
[4], 0.3704 µM	0.893
[4], 1.111 µM	0.39
[4], 3.333 µM	0.257
[4], 10 µM	0.271
[5], 0.00017 µM	1.04
[5], 0.00051 µM	1.03
[5], 0.00152 µM	1.02
[5], 0.00457 µM	0.997
[5], 0.01372 µM	1.01
[5], 0.04115 µM	0.961
[5], 0.1235 µM	0.792
[5], 0.3704 µM	0.485
[5], 1.111 µM	0.263
[5], 3.333 µM	0.192
[5], 10 µM	0.157
[6], 0.00017 µM	0.978
[6], 0.00051 µM	0.943
[6], 0.00152 µM	0.974
[6], 0.00457 µM	0.978
[6], 0.01372 µM	0.958
[6], 0.04115 µM	0.945
[6], 0.1235 µM	0.917
[6], 0.3704 µM	0.668
[6], 1.111 µM	0.372
[6], 3.333 µM	0.269
[6], 10 µM	0.181
[7], 0.00017 µM	1
[7], 0.00051 µM	0.978
[7], 0.00152 µM	0.979
[7], 0.00457 µM	0.931
[7], 0.01372 µM	0.93
[7], 0.04115 µM	0.939
[7], 0.1235 µM	0.821
[7], 0.3704 µM	0.375
[7], 1.111 µM	0.19
[7], 3.333 µM	0.124
[7], 10 µM	0.122
[8], 0.00017 µM	0.994
[8], 0.00051 µM	0.969
[8], 0.00152 µM	0.931
[8], 0.00457 µM	0.985
[8], 0.01372 µM	0.987
[8], 0.04115 µM	0.966
[8], 0.1235 µM	0.898
[8], 0.3704 µM	0.266
[8], 1.111 µM	0.0642
[8], 3.333 µM	0.0543
[8], 10 µM	0.0611
[9], 0.00017 µM	0.981
[9], 0.00051 µM	0.972
[9], 0.00152 µM	0.987
[9], 0.00457 µM	1.02
[9], 0.01372 µM	1.02
[9], 0.04115 µM	0.946
[9], 0.1235 µM	0.793
[9], 0.3704 µM	0.564
[9], 1.111 µM	0.392
[9], 3.333 µM	0.36
[9], 10 µM	0.364
[10], 0.00017 µM	0.976
[10], 0.00051 µM	1
[10], 0.00152 µM	0.965
[10], 0.00457 µM	0.958
[10], 0.01372 µM	0.945
[10], 0.04115 µM	0.896
[10], 0.1235 µM	0.826
[10], 0.3704 µM	0.592
[10], 1.111 µM	0.399
[10], 3.333 µM	0.253
[10], 10 µM	0.219
[11], 0.00017 µM	0.971
[11], 0.00051 µM	0.991
[11], 0.00152 µM	0.982
[11], 0.00457 µM	0.938
[11], 0.01372 µM	0.931
[11], 0.04115 µM	0.923
[11], 0.1235 µM	0.883
[11], 0.3704 µM	0.825
[11], 1.111 µM	0.166
[11], 3.333 µM	0.0737
[11], 10 µM	0.0525
[12], 0.00017 µM	0.948
[12], 0.00051 µM	0.976
[12], 0.00152 µM	0.98
[12], 0.00457 µM	0.969
[12], 0.01372 µM	0.953
[12], 0.04115 µM	0.878
[12], 0.1235 µM	0.854
[12], 0.3704 µM	0.678
[12], 1.111 µM	0.436
[12], 3.333 µM	0.229
[12], 10 µM	0.159
